Values of other authors in PMC10384408, “Anticancer Tungstenocenes with a Diverse Set of (O,O–), (O,S–) and (O,N–) Chelates—A Detailed Biological Study Using an Improved Evaluation via 3D Spheroid Models” (Pharmaceutics, 2023).

Experiments:
Settings in all cases: MTT assay, 96 h; cited from earlier work
[1] = test system: A549 (non-small cell lung carcinoma) cells
[2] = test system: SW480 (colon carcinoma) cells
[3] = test system: CH1/PA-1 (ovarian teratocarcinoma) cells

SMILES: Cc1occc(=O)c1[O-].F[P-](F)(F)(F)(F)F.[Mo+4].c1cc[cH-]c1.c1cc[cH-]c1 [[Cp2Mo(L1)]PF6]
- IC50 [1]: > 200 µM
- IC50 [2]: > 200 µM
- IC50 [3]: > 200 µM

SMILES: Cc1occc(=S)c1[O-].F[P-](F)(F)(F)(F)F.[Mo+4].c1cc[cH-]c1.c1cc[cH-]c1 [[Cp2Mo(L2)]PF6]
- IC50 [1]: 106 ± 15 µM
- IC50 [2]: 55 ± 9 µM
- IC50 [3]: 29 ± 10 µM

SMILES: F[P-](F)(F)(F)(F)F.O=c1c([O-])c(-c2ccc(Cl)cc2)oc2ccccc12.[Mo+4].c1cc[cH-]c1.c1cc[cH-]c1 [[Cp2Mo(L3)]PF6]
- IC50 [1]: 24 ± 4 µM
- IC50 [2]: 5.6 ± 0.2 µM
- IC50 [3]: 1.7 ± 0.4 µM

SMILES: F[P-](F)(F)(F)(F)F.[Mo+4].[O-]c1c(-c2ccc(Cl)cc2)oc2ccccc2c1=S.c1cc[cH-]c1.c1cc[cH-]c1 [[Cp2Mo(L4)]PF6]
- IC50 [1]: 5.7 ± 1 µM
- IC50 [2]: 1.6 ± 0.2 µM
- IC50 [3]: 0.72 ± 0.13 µM

SMILES: F[P-](F)(F)(F)(F)F.O=C([O-])c1ccccn1.[Mo+4].c1cc[cH-]c1.c1cc[cH-]c1 [[Cp2Mo(L5)]PF6]
- IC50 [1]: > 200 µM
- IC50 [2]: > 200 µM
- IC50 [3]: > 200 µM
